Legend:
[1] = molecular target: T1, complex I (CI), NADH-binding site (Bos taurus, UniProt P25708); assay: NADH oxidation by CI-PLs with AOX, absorbance; assay type: biochemical; details: 200 µM NADH, ubiquinone-10, AOX; pH 7.5, 32 °C
T1 construct: gene NDUFV1; native 45-subunit complex from heart mitochondria, purified in LMNG, in proteoliposomes; with NADH dehydrogenase [ubiquinone] flavoprotein 2, mitochondrial; NADH-ubiquinone oxidoreductase 75 kDa subunit, mitochondrial; NADH dehydrogenase [ubiquinone] iron-sulfur protein 2, mitochondrial; NADH dehydrogenase [ubiquinone] iron-sulfur protein 7, mitochondrial

[2] = molecular target: T2, complex I (CI), ubiquinone-10-binding site (Bos taurus, UniProt P03887+P17694+P42026); assay: cryoEM structure in proteoliposomes; details: CI-out-closed state, 2.5 Å; native substrate, deep-bound
T2 construct: gene NDUFS2; native 45-subunit complex from heart mitochondria, purified in LMNG, reconstituted in proteoliposomes (CI-PLs); natural variant NDUFS2-129 modelled as Arg; with NADH-ubiquinone oxidoreductase chain 3; NADH-ubiquinone oxidoreductase chain 6; NADH dehydrogenase [ubiquinone]; 1 alpha subcomplex subunit 9, mitochondrial

[3] = molecular target: T1, complex I (CI), NADH-binding site; assay: NADH:APAD+ oxidoreduction, absorbance; assay type: biochemical; details: 500 µM APAD+, 100 µM NADH, 500 nM piericidin A; pH 7.5, 32 °C

T1 sequence (P25708 21-464, one chain of several): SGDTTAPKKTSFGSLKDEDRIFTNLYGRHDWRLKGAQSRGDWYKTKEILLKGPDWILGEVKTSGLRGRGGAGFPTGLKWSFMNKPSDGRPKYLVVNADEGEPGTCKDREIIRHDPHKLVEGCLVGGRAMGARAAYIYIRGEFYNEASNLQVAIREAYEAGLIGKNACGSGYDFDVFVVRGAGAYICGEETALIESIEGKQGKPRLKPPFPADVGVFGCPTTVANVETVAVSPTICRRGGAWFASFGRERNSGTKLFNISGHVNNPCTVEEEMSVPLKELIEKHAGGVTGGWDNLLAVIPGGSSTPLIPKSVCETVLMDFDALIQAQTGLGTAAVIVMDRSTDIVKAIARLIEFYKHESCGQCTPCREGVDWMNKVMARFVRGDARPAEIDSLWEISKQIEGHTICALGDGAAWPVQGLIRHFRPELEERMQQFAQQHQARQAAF
T2 sequence (P17694 34-463): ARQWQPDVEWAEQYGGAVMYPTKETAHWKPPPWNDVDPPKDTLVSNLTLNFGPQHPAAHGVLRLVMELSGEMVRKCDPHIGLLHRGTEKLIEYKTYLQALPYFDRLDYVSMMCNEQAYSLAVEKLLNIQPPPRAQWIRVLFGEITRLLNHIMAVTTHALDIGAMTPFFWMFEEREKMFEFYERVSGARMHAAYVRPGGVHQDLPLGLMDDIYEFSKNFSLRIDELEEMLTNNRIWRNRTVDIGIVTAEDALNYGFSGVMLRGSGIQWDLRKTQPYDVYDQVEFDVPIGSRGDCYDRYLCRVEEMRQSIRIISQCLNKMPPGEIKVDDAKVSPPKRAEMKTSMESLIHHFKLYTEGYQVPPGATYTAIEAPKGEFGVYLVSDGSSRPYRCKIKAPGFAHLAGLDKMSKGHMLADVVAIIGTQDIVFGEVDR
T2 sequence (P03887 whole entry): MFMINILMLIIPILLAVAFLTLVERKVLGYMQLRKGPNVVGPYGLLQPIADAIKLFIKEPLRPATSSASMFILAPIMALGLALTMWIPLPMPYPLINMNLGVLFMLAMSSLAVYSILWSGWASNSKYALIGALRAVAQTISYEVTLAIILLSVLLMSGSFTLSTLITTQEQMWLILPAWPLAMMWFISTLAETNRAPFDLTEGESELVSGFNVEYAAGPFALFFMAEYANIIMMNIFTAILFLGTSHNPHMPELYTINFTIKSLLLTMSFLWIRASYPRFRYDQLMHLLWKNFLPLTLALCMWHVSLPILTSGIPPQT
T2 sequence (P42026 38-216): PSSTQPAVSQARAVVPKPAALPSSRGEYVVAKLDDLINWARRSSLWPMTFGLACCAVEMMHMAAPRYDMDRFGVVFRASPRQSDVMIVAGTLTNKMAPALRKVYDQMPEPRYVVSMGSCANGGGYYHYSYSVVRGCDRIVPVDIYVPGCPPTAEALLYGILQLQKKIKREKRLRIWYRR

## NC(=O)C1=CN([C@@H]2O[C@H](COP(=O)(O)OP(=O)(O)OC[C@H]3O[C@@H](n4cnc5c(N)ncnc54)[C@H](O)[C@@H]3O)[C@@H](O)[C@H]2O)C=CC1 [NADH]
[1]
  NADH oxidation by CI-PLs with AOX, absorbance: NADH:O2 oxidoreduction rates were measured as the rates of NADH oxidation

## COC1=C(OC)C(=O)C(C/C=C(\C)CC/C=C(\C)CC/C=C(\C)CC/C=C(\C)CC/C=C(\C)CC/C=C(\C)CC/C=C(\C)CC/C=C(\C)CC/C=C(\C)CCC=C(C)C)=C(C)C1=O [ubiquinone-10]
[2]
  cryoEM structure in proteoliposomes: The CI-in/out-closed structures exhibit well-ordered density for ubiquinone-10, inserted fully into its active site

## CC(=O)c1ccc[n+]([C@@H]2O[C@H](COP(=O)([O-])OP(=O)(O)OC[C@H]3O[C@@H](n4cnc5c(N)ncnc54)[C@H](O)[C@@H]3O)[C@@H](O)[C@H]2O)c1 [APAD^+]
[3]
  NADH:APAD+ oxidoreduction, absorbance: Complex I concentration in CI-PLs was determined using the NADH:APAD^+ oxidoreduction reaction

— doi:10.1101/2023.12.14.571638v1, “Structural basis of a regulatory switch in mammalian complex I” (biorxiv, 2023)
